Target: T1, interaction of Gal3 and Abeta (1-42) oligomer (Homo sapiens, UniProt P17931)
T1 construct: His
Test: Gal3-Abeta (1-42) oligomer blocking ELISA
Assay type: binding
Conditions: at 10,000 nM
Description: To identify Gal3-targeted antibodies with the ability to block the interaction of Gal3 and Abeta, purified Gal3 and Abeta (1-42) peptide and oligomer were incubated in the presence (or absence) of various Gal3-targeted or control antibodies, or without antibody, and protein interaction was evaluated by ELISA.
The plate was incubated for an hour at room temperature with gentle rocking. Thereafter, the plate was washed three times with PBST. […] The plate was incubated at room temperature for an hour with gentle rocking and then washed three times with PBST. […] Percent blockade of Gal3-Abeta (1-42) peptide or oligomer interaction was calculated as the fraction of signal obtained in the absence of antibody with the background signal subtracted.
The plate was incubated for an hour at room temperature with gentle rocking. Thereafter, the plate was washed three times with PBST. […] The plate was incubated at room temperature for an hour with gentle rocking and then washed three times with PBST. […] Percent blockade of Gal3-Abeta (1-42) oligomer interaction was calculated as the fraction of signal obtained in the absence of antibody or inhibitor with the background signal subtracted.

T1 sequence (P17931 2-250 limits assumed): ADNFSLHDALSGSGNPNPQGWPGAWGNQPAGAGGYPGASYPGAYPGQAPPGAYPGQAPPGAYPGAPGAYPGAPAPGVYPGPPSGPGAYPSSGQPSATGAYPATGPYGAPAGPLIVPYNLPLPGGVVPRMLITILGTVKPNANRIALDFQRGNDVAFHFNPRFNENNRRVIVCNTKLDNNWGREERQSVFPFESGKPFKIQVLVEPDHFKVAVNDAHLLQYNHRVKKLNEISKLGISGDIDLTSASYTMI

Percent blockade of Gal3-Abeta (1-42) oligomer interaction: at most 19%
SMILES: OC[C@H]1O[C@@H](S[C@@H]2O[C@H](CO)[C@H](O)[C@H](n3cc(-c4cccc(F)c4)nn3)[C@H]2O)[C@H](O)[C@@H](n2cc(-c3cccc(F)c3)nn2)[C@H]1O [TD139]

Reference: patent US20250145722A1, “ANTI-GAL3 ANTIBODIES AND METHODS OF USE” (TrueBinding, Inc., priority 2020, published 2025)
